Paper PMC12203697, “Bioactive constituents from the edible seaweed Halymenia hawaiiana (Rhodophyta)” (Pharmaceutical Biology, 2025)
Converted amounts (≈) assume the structure as drawn.

Assays:
[1] = Ferric-reducing antioxidant power (FRAP) assay
Protocol: The FRAP assay was used to evaluate antioxidant activity based on the ability of the sample to reduce Fe^3+-TPTZ (2,4,6-tris(2-pyridyl)-S-triazine) to Fe^2+-TPTZ (Benzie and Strain [1996]). This reduction results in a color change from colorless to blue. The absorbance was measured at 593 nm using a Microplate Reader (BioTek ELx800 Instruments Inc. Winooski, Vermont, USA) with the Gen 5 software for FRAP value calculations. A ferrous sulfate heptahydrate (FeSO4 · 7H2O) (Cat. No. 215422, Sigma-Aldrich, USA) standard curve, ranging from 1000 µM to 50 µM, was prepared for the assay. The FRAP reagent consists of 300 mM sodium acetate buffer (pH 3.6) (Cat. No. 90358, Sigma-Aldrich, USA), 10 mM TPTZ solution (Cat. No. T1253, Sigma-Aldrich, USA), and 20 mM ferric (III) chloride hexahydrate (FeCl3 · 6H2O) (Cat. No. 236489, Sigma-Aldrich, USA) in a 10:1:1 ratio, respectively, and heated to 37 °C for ten minutes before use. A blank was measured at 593 nm with 150 µL FRAP reagent added to each well of a 96-well microtiter plate. Samples (20 µL of each sample) (1, 0.5, 0.25 mg/mL) and ascorbic acid (Sigma-Aldrich, Cat. No. A4403) positive control (1 mg/mL) were added in triplicates. Reducing capacity was expressed by FRAP values in an µM FeSO4/µg sample unit.

S. marcescent = assay: Antibacterial MIC, broth microdilution with resazurin; type: cell-based, Serratia marcescens; settings: Serratia marcescens, Gram-negative, read-out: MIC
From the text: Methicillin-resistant Staphylococcus aureus (MRSA), methicillin-susceptible S. aureus (MSSA), and Gram-negative clinical isolates of bacteria [Escherichia coli (9637) and Serratia marcescens ATCC 13880] were used for this study. […] MSSA HBP10, MSSA LUU7, MSSA R113, S. aureus ONE9, and MSSA POB2 were isolated in Hawaiʻi (Gerken et al. [2021]). Mueller Hinton Broth (MHB, GTIN:00382902979630, Becton, Dickinson and Company, Franklin Lakes, NJ, USA) and Mueller Hinton Agar (MHA, GTIN:00382902252504, Becton, Dickinson and Company, Franklin Lakes, NJ, USA,) were used for bacterial inoculation. MRSA was a pathogen strain causing hospital-acquired infections in 1982. This strain easily acquires resistance to antibiotics, such as vancomycin. MSSA strains isolated from the Island of Hawaiʻi included: Honolʻii Beach Park (HBP10) carry the genes erm(C), aph(3′)-III, and mecA, which provide resistance to macrolide, aminoglycoside, and beta-lactam antibiotics, respectively; Wailuku River (LUU7) which contains the blaZ gene (beta-lactam resistance) (Gerken et al. [2021]). Richardson’s Beach Park (R113) and Onekahakaha (ONE9) which is known for its virulence factors (hlgA, hlgB, hlgC, lukD, and lukE).
The minimum inhibitory concentrations (MICs) were determined using a two-fold serial dilution method with MHB following the recommendations of the Clinical and Laboratory Standards Institute (CLSI [2012]; Elshikh et al. [2016]). In brief, serial two-fold dilutions of the samples in DMSO were mixed with MHB in a 96-well microplate. Then, 50 µL of bacteria suspension was added to each well, resulting in a final concentration of 1 × 10^4 colony-forming units/well. The plates were incubated at 35–37 °C for 18–24 hr. After incubation, 10 µL of 0.18% resazurin (Cat. No. R7017, Sigma-Aldrich, USA) was added to each well (Elshikh et al. [2016]). The MIC was assessed within 2–3 hr after the addition of resazurin. All antimicrobial assays were performed in triplicate, using vancomycin (Cat. No. SBR00001, Sigma-Aldrich, USA) and gentamicin (Cat. No. G1397, Sigma-Aldrich, USA) as standard controls.

Row | SMILES | FRAP ([1]; µM FeSO4/µg sample) [µM/µg] | MIC (S. marcescent) [µg/mL] | FRAP ([1]; FeSO4 standard curve) [µM]
1 | Nc1ccn([C@H]2C[C@H](O)[C@@H](CO)O2)c(=O)n1 [Compound 1, deoxycytidine] | 0.41 ± 0.03 | 128 (≈ 563 µM) | 
2 | CC(C)CCC[C@@H](C)[C@H]1CC[C@H]2[C@@H]3CC=C4C[C@@H](O)CC[C@]4(C)[C@H]3CC[C@]12C [Compound 9, cholesterol] |  | 128 (≈ 331 µM) | 
3 | CC(C)CCC[C@@H](C)[C@H]1CCC2[C@@]34C=C[C@]5(C[C@@H](O)CC[C@]5(C)C3CC[C@@]21C)OO4 (stereo partly shown) [Compound 10, 7-dehydrochoresterol peroxide] | 2.55 ± 0.02 | 64 (≈ 154 µM) | 204.07
4 | CC(C)CCC[C@@H](C)[C@H]1CCC2[C@]1(C)CC=C1[C@]23C=C[C@]2(C[C@@H](O)CC[C@]12C)OO3 (stereo partly drawn) [Compound 11, (3β-5α-8α)5,8-epidioxycholesta-6,9(1)-diene-3-ol] |  | 64 (≈ 154 µM) | 
